In patent publication US20030087887A1, “Novel fusidic acid derivatives” (priority 2001, published 2003) one finds MIC data, which are given here for six molecules.

Converted amounts (≈) assume the structure as drawn. Like-named read-outs stand apart in the source and are kept apart here.

Common to all, as to assay type: cell-based
Experiment [1] relates to Propionibacterium acnes FN33. In words: MIC, agar diffusion, Propionibacterium acnes FN33. As to conditions: Cutibacterium acnes, read-out: in vitro activities MIC. From the text: (§1) In vitro investigations have shown a relatively high potency of compounds of the invention against all bacteria including gram-positive and gram-negative strains (Staphylococci, Streptococci, Corynebacteriae, Mycobacteriae, Proteus, Propionibacterium, Pseudomonas, Neisseriae, E. coli) and fungal strains (Candida and Aspergillus). […] In addition, the studies of post-antibiotic effects point towards a strong bactericidal effect of the compounds of the invention. […] The potency of new polyaminated fusidic acid analogues is estimated by comparing the inhibition of growth of different microorganisms produced by known concentrations of the analogue to be examined and a reference compound such as fusidic acid. The microbiological assay set up is in agreement with the European Pharmacopoeia 3rd edition (1997). It is an agar diffusion method where the same volume of the tested solution is added to cavities in agar. The inhibition zones are function of the concentration of the fusidic acid analogue used. All assays are run with fusidic acid as reference substance.

Another experiment relates to S. aureus CJ234F. In words: MIC, agar diffusion, S. aureus CJ234F. As to conditions: Staphylococcus aureus; S. aureus CJ234F (MRSA, Fus. resistant); read-out: in vitro activities MIC.
From the text: as §1

Another experiment has as its system S. aureus CJ234R. In words: MIC, agar diffusion, S. aureus CJ234R. To be noted: Staphylococcus aureus, read-out: in vitro activities MIC.
From the text: as §1

Another experiment has as its system E. coli HA165. Description: MIC, agar diffusion, E. coli HA165. As to conditions: Escherichia coli, read-out: in vitro activities MIC.
From the text: as §1

For the next experiment, the system named is S. aureus CJ200. In words: MIC, agar diffusion, S. aureus CJ200. As to conditions: Staphylococcus aureus, read-out: in vitro activities MIC.
From the text: as §1

Experiment [2] deals with Corynebacterium xerosis FF. In words: MIC, agar diffusion, Corynebacterium xerosis FF. To be noted: read-out: in vitro activities MIC.
From the text: as §1

In experiment [3] the test system is Streptococcus faecium EI19. In words: MIC, agar diffusion, Streptococcus faecium EI19. As to conditions: Enterococcus faecium; Streptococcus faecium EI19 (Penicillin resistant); read-out: in vitro activities MIC.
From the text: as §1

In a further experiment the test system is Candida albicans ZA. Description: MIC, agar diffusion, Candida albicans ZA. As to conditions: read-out: in vitro activities MIC.
From the text: as §1

Experiment [4] deals with Pseudomonas aeruginosa BA17. Description: MIC, agar diffusion, Pseudomonas aeruginosa BA17. As to conditions: read-out: in vitro activities MIC.
From the text: as §1

Another experiment concerns S. aureus CJ247. In words: MIC, agar diffusion, S. aureus CJ247. As to conditions: Staphylococcus aureus, read-out: in vitro activities MIC.
From the text: as §1

In experiment [5] the test system is Saccaromyces cervisiae ZZ7. Description: MIC, agar diffusion, Saccaromyces cervisiae ZZ7. As to conditions: Saccharomyces cerevisiae, read-out: in vitro activities MIC.
From the text: as §1

In another experiment the test system is S. aureus N6. In words: MIC, agar diffusion, S. aureus N6. To be noted: Staphylococcus aureus; S. aureus N6 (Fus. resistant); read-out: in vitro activities MIC.
From the text: as §1

In the next experiment the test system is Asbergillus niger ZM35. Description: MIC, agar diffusion, Asbergillus niger ZM35. As to conditions: Aspergillus niger, read-out: in vitro activities MIC.
From the text: as §1

In experiment [6] the test system is Streptococcus pyogenes EC88. Description: MIC, agar diffusion, Streptococcus pyogenes EC88. As to conditions: read-out: in vitro activities MIC.
From the text: as §1

A further experiment concerns S. epidermis CK5. In words: MIC, agar diffusion, S. epidermis CK5. As to conditions: Staphylococcus epidermidis, read-out: in vitro activities MIC.
From the text: as §1

The mark [7] stands for this setting: S. aureus CJ234R (MRSA, Rifampicin resistant).

On to `CC(C)CCCC(C(=O)NCCCNCCCNCCCN)[C@@H]1CC[C@@]2(C)C1C[C@@H](O)C1[C@@]3(C)CC[C@@H](O)[C@@H](C)C3CC[C@@]12C` (stereo partly drawn) [Compound 145, 21-N-{[3′-({3′-[(3′-aminopropyl)amino]propyl}amino)propyl]}-16-desacetoxy-17R,20S,24,25-tetrahydrofusid-21-amide], for which the MIC amounted to 1 µg/mL (≈ 1.58 µM) in experiment [1]; 1 µg/mL (≈ 1.58 µM) with S. aureus CJ234F; 4 µg/mL (≈ 6.32 µM) in the experiment with S. aureus CJ234R (MRSA); 4 µg/mL (≈ 6.32 µM) in the experiment with E. coli HA165; 1 µg/mL (≈ 1.58 µM) with S. aureus CJ200; 1 µg/mL (≈ 1.58 µM) in experiment [2]. In addition, the MIC is 4 µg/mL (≈ 6.32 µM) in experiment [3]; over 125 µg/mL with Candida albicans ZA; 4 µg/mL (≈ 6.32 µM) in experiment [4]; 1 µg/mL (≈ 1.58 µM) with S. aureus CJ247; 4 µg/mL (≈ 6.32 µM) in [5]; 1 µg/mL (≈ 1.58 µM) in the experiment with S. aureus N6. Also, the MIC was over 125 µg/mL in the experiment on Asbergillus niger ZM35, 4 µg/mL (≈ 6.32 µM) in [6] and 1 µg/mL (≈ 1.58 µM) in the experiment on S. epidermis CK5.
In the case of `CC(=O)O[C@H]1C[C@@]2(C)C(C[C@@H](O)C3[C@@]4(C)CC[C@@H](OC(C)=O)[C@@H](C)C4CC[C@@]32C)[C@@H]1[C@H](CCCC(C)C)C(=O)NCCCNCCCNCCCN` (stereo partly drawn) [Compound 172, 21-N-[3′-({3′-[(3′-aminopropyl)amino]propyl}amino)propyl]-3-OAc-17R,20S,24,25-tetrahydrofusid-21-amide], the MIC in experiment [1] is 1 µg/mL (≈ 1.36 µM); in the experiment on S. aureus CJ234F, 4 µg/mL (≈ 5.46 µM); in the experiment with S. aureus CJ234R (MRSA), 1 µg/mL (≈ 1.36 µM); with E. coli HA165, 4 µg/mL (≈ 5.46 µM); in the experiment with S. aureus CJ200, 4 µg/mL (≈ 5.46 µM); in experiment [2], 4 µg/mL (≈ 5.46 µM). For the same molecule, the MIC in the experiment on Candida albicans ZA is 64 µg/mL (≈ 87.3 µM); in experiment [4] it was 4 µg/mL (≈ 5.46 µM); in the experiment on S. aureus CJ247, 4 µg/mL (≈ 5.46 µM); in experiment [5] it was 64 µg/mL (≈ 87.3 µM); in the experiment with S. aureus N6 it was 4 µg/mL (≈ 5.46 µM); in the experiment with Asbergillus niger ZM35, 64 µg/mL (≈ 87.3 µM). Besides, the MIC (in [6]; in the experiment with S. epidermis CK5) was 4 µg/mL (≈ 5.46 µM) each time.
As for `CC(=O)O[C@H]1C[C@@]2(C)C(C[C@@H](O)C3[C@@]4(C)CC[C@@H](OC(C)=O)[C@@H](C)C4CC[C@@]32C)[C@@H]1[C@H](CCCC(C)C)C(=O)NCCCNCCCCNCCCN` (stereo partly drawn) [Compound 173, 21-N-[3′-({4′-[(3′-aminopropyl)amino]butyl}amino)propyl]-3-OAc-17R,20S,24,25-tetrahydrofusid-21-amide], the MIC in experiment [1] is 4 µg/mL (≈ 5.35 µM); in the experiment with S. aureus CJ234F, 4 µg/mL (≈ 5.35 µM); in the experiment on S. aureus CJ234R (MRSA), 1 µg/mL (≈ 1.34 µM); in the experiment on E. coli HA165, 4 µg/mL (≈ 5.35 µM); with S. aureus CJ200, 4 µg/mL (≈ 5.35 µM); in experiment [2], 4 µg/mL (≈ 5.35 µM). Besides, the MIC stood at 125 µg/mL (≈ 167 µM) with Candida albicans ZA; 4 µg/mL (≈ 5.35 µM) in [4]; 4 µg/mL (≈ 5.35 µM) in the experiment with S. aureus CJ247; 4 µg/mL (≈ 5.35 µM) in experiment [5]; 4 µg/mL (≈ 5.35 µM) in the experiment on S. aureus N6; 125 µg/mL (≈ 167 µM) with Asbergillus niger ZM35. Besides, the values for the MIC (in [6]; with S. epidermis CK5) were 4 µg/mL (≈ 5.35 µM) and 1 µg/mL (≈ 1.34 µM), respectively.
Consider `CC(=O)O[C@H]1C[C@@]2(C)[C@@H](C[C@@H](O)[C@H]3[C@@]4(C)CC[C@@H](O)[C@@H](C)[C@@H]4CC[C@@]32C)/C1=C(\CCC=C(C)C)C(=O)O` [FA, fusidic acid], for which the MIC was 0.2 µg/mL (≈ 0.387 µM) in experiment [1]; 16 µg/mL (≈ 31 µM) in the experiment on S. aureus CJ234F; 0.02 µg/mL (≈ 0.0387 µM) with S. aureus CJ234R (setting [7]); over 64 µg/mL with E. coli HA165; 0.02 µg/mL (≈ 0.0387 µM) in the experiment with S. aureus CJ200; 0.1 µg/mL (≈ 0.194 µM) in experiment [2]. In addition, the MIC is over 64 µg/mL with Candida albicans ZA; over 64 µg/mL in experiment [4]; 0.02 µg/mL (≈ 0.0387 µM) in the experiment on S. aureus CJ247; over 64 µg/mL in [5]; 16 µg/mL (≈ 31 µM) in the experiment with S. aureus N6; over 64 µg/mL with Asbergillus niger ZM35. Further, the MIC in experiment [6] came to 16 µg/mL (≈ 31 µM); in the experiment with S. epidermis CK5, 0.02 µg/mL (≈ 0.0387 µM).
Turning to `CC(=O)NC[C@H]1CN(c2ccc(N3CCOCC3)c(F)c2)C(=O)O1` [Linezolid, reference compound], the MIC in experiment [1] turned out to be 1 µg/mL (≈ 2.96 µM); with S. aureus CJ234F, 1 µg/mL (≈ 2.96 µM); in the experiment on S. aureus CJ234R (setting [7]), 16 µg/mL (≈ 47.4 µM); in the experiment on S. aureus CJ200 it was 4 µg/mL (≈ 11.9 µM); with S. aureus CJ247, 1 µg/mL (≈ 2.96 µM); in experiment [6], 4 µg/mL (≈ 11.9 µM). Further, the MIC in the experiment with S. epidermis CK5 came to 0.25 µg/mL (≈ 0.741 µM).
Regarding `C/C(=C\C(=O)OCCCCCCCCC(=O)O)C[C@@H]1OC[C@H](C[C@@H]2O[C@H]2[C@@H](C)[C@H](C)O)[C@@H](O)[C@H]1O` [Mupirocin, reference compound], the MIC with S. aureus CJ234F came out at 0.5 µg/mL (≈ 0.999 µM); in the experiment on S. aureus CJ234R (setting [7]), 1 µg/mL (≈ 2 µM); in the experiment with S. aureus CJ200, 1 µg/mL (≈ 2 µM); in the experiment with S. aureus CJ247 it was 0.5 µg/mL (≈ 0.999 µM); in [6] it was 1 µg/mL (≈ 2 µM); in the experiment on S. epidermis CK5 it was 0.04 µg/mL (≈ 0.0799 µM).
